{"source": "patent US6589989B1", "about": "“Treatment of cell-mediated immune diseases” (Basilea Pharmaceutica AG, priority 1997, dated 2003)", "key": {"[1]": {"test_system": "T-helper cell type 1 mediated immune diseases", "assay": "Low oral daily doses of 9-cis retinoic acid in T-helper cell type 1 mediated immune diseases"}, "chronic hand eczema": {"test_system": "chronic hand eczema", "assay": "Once daily oral 9-cis retinoic acid in patients with chronic hand eczema refractory to conventional treatment", "protocol": "Fifteen patients, eight men and seven women, with chronic hand eczema, refractory to conventional treatment, were treated with 9-cis retinoic acid. Their mean age was 52.3 years, range 21-83. Before the start of 9-cis retinoic acid therapy, their eczema had already lasted for 3 months to 8 years, with a mean of 29 months. […] Therapy consisted in a once daily oral dose of 40 mg 9-cis retinoic acid, given in the form of two soft gelatin capsules containing 20 mg of 9-cis retinoic acid each, with breakfast. 8 patients received in the first week only 20 mg. Mean duration of treatment was 2 months, range 1-3 months. The following lesions and symptoms were recorded on a 0-4 scale (0=none, 1=mild, 2=moderate and 4=severe) and used for evaluating the therapeutic effect: Erythema, papules and vesicles, desquamation, hyperkeratosis, rhagades and pruritus/pain. Side effects, particularly those belonging to the hypervitaminosis A syndrome, were recorded: Headache, dry lips, other mucocutaneous manifestations, muscoskeletal symptoms and laboratory abnormalities."}, "[2]": {"test_system": "non-malignant skin-disorders, such as acne, psoriasis, lamellar ichthyosis, Darier's disease and lichen planus", "settings": "low daily doses of 20 to 60 mg"}, "[3]": {"test_system": "malignant skin diseases and solid tumors of other organs", "assay": "High oral daily doses of 9-cis retinoic acid in malignant skin diseases and solid tumors", "assay_type": "in vivo", "settings": "high oral daily doses of up to 300 mg"}, "[4]": {"settings": "higher doses; Kurie et al. 1996, Miller et al. 1996; cited from earlier work"}, "[5]": {"settings": "0-4 scale, individual patient, after 40 mg oral daily for 1-3 months"}, "[6]": {"settings": "0-4 scale, individual patient, before 40 mg oral daily"}, "[7]": {"settings": "for all 15 patients, 40 mg daily oral"}, "[8]": {"settings": "for the 14 responding patients, 40 mg daily oral"}, "[9]": {"settings": "for the 14 responding patients, 40 mg daily oral, listed as 9-cis retinoic acid"}, "[10]": {"settings": "individual patient, 40 mg oral daily for 1-3 months"}}, "note": "Values joined by “and” are separate entries in the source; they are usually repeats but may differ in a detail not shown here. Equal values may be shown once.", "data": [{"smiles": "CC1=C(/C=C/C(C)=C\\C=C\\C(C)=C\\C(=O)O)C(C)(C)CCC1", "note": "[9-cis RA, 9-cis retinoic acid]", "values": [{"measurement": "Other toxic signs and symptoms of the hypervitaminosis A syndrome, including the laboratory abnormalities", "setting": "[1]; daily doses typically 20 to 60 mg, oral", "value": "not induced"}, {"measurement": "Efficacy in treatment of T-helper cell type 1 mediated immune diseases", "setting": "[1]; low daily doses of 20 to 60 mg", "value": "efficacious"}, {"measurement": "Desquamation, after treatment", "setting": "chronic hand eczema; [5]", "value": "1 (5×) and 0 (6×) and 3/3 and 0/0 (2×) and 0.5"}, {"measurement": "Erythema, after treatment", "setting": "chronic hand eczema; [5]", "value": "0 (9×) and 0.5 (2×) and 2 and 0/0 and 2/2 and 1"}, {"measurement": "Hyperkeratosis, after treatment", "setting": "chronic hand eczema; [5]", "value": "0 (8×) and 1/1 (2×) and 1 (2×) and 3/3 and 0.5 (2×)"}, {"measurement": "Papules, vesicles, after treatment", "setting": "chronic hand eczema; [5]", "value": "0 (4×) and 1 (4×) and 0/0 (6×) and 0.5"}, {"measurement": "Pruritus (+ pain), after treatment", "setting": "chronic hand eczema; [5]", "value": "0 (6×) and 1 (4×) and 2 (2×) and 7/7 and 0.5 (2×)"}, {"measurement": "Rhagades, after treatment", "setting": "chronic hand eczema; [5]", "value": "0 (12×) and 2 and 2/2 and 1"}, {"measurement": "Desquamation, before treatment", "setting": "chronic hand eczema; [6]", "value": "2 (4×) and 3 (4×) and 1 (4×) and 3/3 and 0/0 (2×)"}, {"measurement": "Erythema, before treatment", "setting": "chronic hand eczema; [6]", "value": "1 (8×) and 2 (4×) and 4 and 0/0 and 2/2"}, {"measurement": "Hyperkeratosis, before treatment", "setting": "chronic hand eczema; [6]", "value": "4 and 3 and 1/1 (2×) and 2 (8×) and 1 (2×) and 3/3"}, {"measurement": "Papules, vesicles, before treatment", "setting": "chronic hand eczema; [6]", "value": "3 (3×) and 2 (3×) and 1 (3×) and 0/0 (6×)"}, {"measurement": "Pruritus (+ pain), before treatment", "setting": "chronic hand eczema; [6]", "value": "2 (3×) and 3 (4×) and 4 (3×) and 5 (4×) and 7/7"}, {"measurement": "Rhagades, before treatment", "setting": "chronic hand eczema; [6]", "value": "3 (3×) and 2 (5×) and 1 (5×) and 0.5 and 2/2"}, {"measurement": "Regression of the various lesions and symptoms (erythema, papules and vesicles etc.)", "setting": "chronic hand eczema; 40 mg daily oral", "value": "62-100%"}, {"measurement": "Musculoskeletal or other symptoms", "setting": "chronic hand eczema; 40 mg daily, 15 patients", "value": "no musculoskeletal or other symptoms were observed"}, {"measurement": "Overall response of the patients", "setting": "chronic hand eczema; all fifteen patients, 40 mg daily", "value": "responded markedly"}, {"measurement": "Reduction of Lesion/symptom score, in %, mean", "setting": "chronic hand eczema; [7]", "value": 76.3, "unit": "%"}, {"measurement": "Reduction of Lesion/symptom score, in %, range", "setting": "chronic hand eczema; [7]", "value": "0-100%"}, {"measurement": "Reduction of Lesion/symptom score, in %, mean", "setting": "chronic hand eczema; [8]", "value": "mean 81.8%"}, {"measurement": "Reduction of Lesion/symptom score, in %, range", "setting": "chronic hand eczema; [8]", "value": "for the 14 responding patients 53-100, %"}, {"measurement": "Reduction of Lesion/symptom score, in %, mean", "setting": "chronic hand eczema; [9]", "value": 81.3, "unit": "%"}, {"measurement": "Reduction of Lesion/symptom score, in %, range", "setting": "chronic hand eczema; [9]", "value": "53-100%"}, {"measurement": "Response assessed by doctor", "setting": "chronic hand eczema; [10]", "value": "very good (6×) and good (7×) and no and moderate"}, {"measurement": "Response assessed by patient", "setting": "chronic hand eczema; [10]", "value": "very good (10×) and good (3×) and moderate and no"}, {"measurement": "Patients with response good, assessment by doctor, number", "setting": "chronic hand eczema; of 15 patients", "value": 7}, {"measurement": "Patients with response good, assessment by doctor, percent", "setting": "chronic hand eczema; of 15 patients", "value": "(47%)"}, {"measurement": "Patients with response good, assessment by patient, number", "setting": "chronic hand eczema; of 15 patients", "value": 3}, {"measurement": "Patients with response good, assessment by patient, percent", "setting": "chronic hand eczema; of 15 patients", "value": "(20%)"}, {"measurement": "Patients with response moderate, assessment by doctor, number", "setting": "chronic hand eczema; of 15 patients", "value": 1}, {"measurement": "Patients with response moderate, assessment by doctor, percent", "setting": "chronic hand eczema; of 15 patients", "value": "(6.5%)"}, {"measurement": "Patients with response moderate, assessment by patient, number", "setting": "chronic hand eczema; of 15 patients", "value": 1}, {"measurement": "Patients with response moderate, assessment by patient, percent", "setting": "chronic hand eczema; of 15 patients", "value": "(6.5%)"}, {"measurement": "Patients with response no, assessment by doctor, number", "setting": "chronic hand eczema; of 15 patients", "value": 1}, {"measurement": "Patients with response no, assessment by doctor, percent", "setting": "chronic hand eczema; of 15 patients", "value": "(6.5%)"}, {"measurement": "Patients with response no, assessment by patient, number", "setting": "chronic hand eczema; of 15 patients", "value": 1}, {"measurement": "Patients with response no, assessment by patient, percent", "setting": "chronic hand eczema; of 15 patients", "value": "(6.5%)"}, {"measurement": "Patients with response slight, assessment by doctor, number", "setting": "chronic hand eczema; of 15 patients", "value": 0}, {"measurement": "Patients with response slight, assessment by doctor, percent", "setting": "chronic hand eczema; of 15 patients", "value": "(0%)"}, {"measurement": "Patients with response slight, assessment by patient, number", "setting": "chronic hand eczema; of 15 patients", "value": 0}, {"measurement": "Patients with response slight, assessment by patient, percent", "setting": "chronic hand eczema; of 15 patients", "value": "(0%)"}, {"measurement": "Patients with response very good, assessment by doctor, number", "setting": "chronic hand eczema; of 15 patients", "value": 6}, {"measurement": "Patients with response very good, assessment by doctor, percent", "setting": "chronic hand eczema; of 15 patients", "value": "(40%)"}, {"measurement": "Patients with response very good, assessment by patient, number", "setting": "chronic hand eczema; of 15 patients", "value": 10}, {"measurement": "Patients with response very good, assessment by patient, percent", "setting": "chronic hand eczema; of 15 patients", "value": "(67%)"}, {"measurement": "Response considered very good or good (doctor and patient), number of patients", "setting": "chronic hand eczema; of 15 patients", "value": 13}, {"measurement": "Response considered very good or good (doctor and patient), percent of patients", "setting": "chronic hand eczema; of 15 patients", "value": 87, "unit": "%"}, {"measurement": "Total Score (0-4 scale), after treatment", "setting": "chronic hand eczema; sum of lesion/symptom scores, individual patient, after 40 mg oral daily for 1-3 months", "value": "1 (3×) and 2 (4×) and 4.5 (2×) and 3 and 0 (3×) and 8 and 17/17"}, {"measurement": "Total Score (0-4 scale), before treatment", "setting": "chronic hand eczema; sum of lesion/symptom scores, individual patient, before 40 mg oral daily", "value": "15 and 14 (2×) and 11 (4×) and 10 (2×) and 17 and 9 (2×) and 17/17 and 13 and 8"}, {"measurement": "Reduction of score in %", "setting": "chronic hand eczema; total score, individual patient, 40 mg oral daily for 1-3 months", "value": "93% and 86% and 59% and 61% and 74% and 100% (3×) and 53% and 89% (2×) and 0% and 85% and 82% and 75%"}, {"measurement": "Therapeutic effect on non-malignant skin-disorders", "setting": "[2]", "value": "no therapeutic effect"}, {"measurement": "Objective tumor regressions", "setting": "[3]", "value": "did not lead to major objective tumor regressions"}, {"measurement": "Side effects", "setting": "[3]", "value": "marked to severe side effects"}, {"measurement": "Other mucocutaneous manifestations, musculoskeletal or other symptoms", "setting": "[4]", "value": "seen with higher doses"}]}]}
